Reference: patent US4199499A, “Pharmacologically active peptides” (Eli Lilly and Company, priority 1978, dated 1980)

System: mouse
Assay: mouse hot plate test
Assay type: in vivo
Conditions: 15 minutes after administration, hot plate 52° C.
Description: The compounds of this invention are useful as analgesics. […] In this test, a mouse is placed inside an upright acrylic cylinder comprising, as its base, a hot plate surface which is maintained at 52° C. The mouse is given, by subcutaneous injection, a predetermined amount of test compound dissolved or suspended in a suitable carrier, and, 15 minutes after administration of the test compound, the mouse is placed on the hot plate surface. The latencies in seconds until the occurrence of each of two separate phenomena then are recorded. First the latency until the mouse licks its hind paw is measured, and, secondly, the latency until the mouse jumps from the hot plate surface is measured. […] This must occur in a dose range which produces no motor incoordination or incapacitation. The following Table records the results obtained from this test, reflected in terms of increase over saline control. Each data point was determined using ten treated and ten control mice, and each represents the difference in mean response latency between treated and control animals. The mean control latency for the hind paw lick response was 28.4±0.9 seconds determined from eight groups of ten control mice each. The mean control jump latency was 52.4±3.7 seconds for studies run in the a.m. and 75.9±6.0 seconds for studies run in the p.m. as determined from four groups of ten mice each in the a.m. and four groups of ten mice each in the p.m.

## CSCCC(C)(CO)NC(=O)[C@H](Cc1ccccc1)NC(=O)CNC(=O)[C@@H](C)NC(=O)[C@@H](N)Cc1ccc(O)cc1 (stereo partly drawn) [C, L-Tyrosyl-D-alanyl-glycyl-L-phenylalanyl-D,L-α-methylmethionine carbinol]
Dose 0.1 mg/kg subcutaneous
  Latency, Increase in Seconds over Control, escape jump (EJ): 16.4 s
  Latency, Increase in Seconds over Control, hind paw lick (HPL): -2.6 s
Dose 0.3 mg/kg subcutaneous
  Latency, Increase in Seconds over Control, escape jump (EJ): 47.7 s
  Latency, Increase in Seconds over Control, hind paw lick (HPL): 1.7 s
Dose 1 mg/kg subcutaneous
  Latency, Increase in Seconds over Control, escape jump (EJ): 55.2 s
  Latency, Increase in Seconds over Control, hind paw lick (HPL): 8.3 s
Dose 3 mg/kg subcutaneous
  Latency, Increase in Seconds over Control, escape jump (EJ): 74.9 s
  Latency, Increase in Seconds over Control, hind paw lick (HPL): 11.2 s
Dose 10 mg/kg subcutaneous
  Latency, Increase in Seconds over Control, escape jump (EJ): 90.7 s
  Latency, Increase in Seconds over Control, hind paw lick (HPL): 18.8 s
Dose 30 mg/kg subcutaneous
  Latency, Increase in Seconds over Control, escape jump (EJ): 93.8 s
  Latency, Increase in Seconds over Control, hind paw lick (HPL): 10.6 s
